Laboratory results published in patent publication US11084976B2, “Method and process of use of binary compositions for acidizing subterranean formations” (Halliburton Energy Services, Inc., priority 2018, dated 2021).
Converted amounts (≈) assume the structure as drawn.

Columns and labels:
[1] = Solubility of PMIDA in water and HCl (saturation concentrations); type: physicochemical; conditions: for solubility thermodynamic: water, thermodynamic from solid, H2O
Source text: In certain embodiments, the organic compound comprising a phosphonoalkyl moiety is at least partially solubilized in the organic or mineral acid. As used herein, the term “at least partially solubilized,” and grammatical variants thereof, with reference to the organic compound comprising a phosphonoalkyl moiety in the organic or mineral acid refers to dissolution of at least about 2% weight per volume (w/v) of the organic compound comprising a phosphonoalkyl moiety in the organic or mineral acid at room temperature. As used herein, the term “room temperature” refers to about 15° C. to about 25° C. The remaining excess organic compound comprising a phosphonoalkyl moiety may be suspended in the organic or mineral acid while it is undergoing dynamic fluid flow at room temperature. As temperatures increase (e.g., as the treatment fluid is introduced into a subterranean formation and encounters downhole temperatures), the solubility of the organic compound comprising a phosphonoalkyl moiety in the organic or mineral acid may increase. Indeed, the solubility of the organic compound comprising a phosphonoalkyl moiety increases as a function of acid concentration, and temperature.

[2] = PMIDA added to base solubility test; type: physicochemical; conditions: base added to PMIDA in solid form or high concentrated slurry
Procedure: During the testing, however, it was observed that adding the base to the PMIDA in its solid form, or in a high concentrated slurry, was unsuccessful.
The following procedure was followed to generate several samples. First, a quantity of a known base in water was prepared. Next, PMIDA was added to the solution at a rate slow enough to ensure that no boiling of the fluid occurred. As discussed above, it is believed that the addition of the PMIDA to the base may result in an exothermic reaction that may aid in additional solubilizing of PMIDA due to the increase in the fluid temperature. After complete addition and thorough mixing, the fluid was cooled, and the volume, weight, and pH were measured. Finally, the concentration and density of the samples were determined.

## O=C(O)CN(CC(=O)O)CP(=O)(O)O [PMIDA, N-(phosphonomethyl)iminodiacetic acid]
[1]; Atm., 7.5% HCl, 200° F.
  Solubility Average: 10.00 w/v %
[1]; 37.8 °C, 200 psi, 100° F.
  solubility thermodynamic: 18.3 mg/mL (≈ 80.6 mM)
[1]; 37.8 °C, Atm., 100° F.
  solubility thermodynamic: 22.6 mg/mL (≈ 99.5 mM)
[1]; 65.6 °C, 200 psi, 150° F.
  solubility thermodynamic: 28.7 mg/mL (≈ 126 mM)
[1]; 65.6 °C, Atm., 150° F.
  solubility thermodynamic: 31.9 mg/mL (≈ 140 mM)
[1]; 93.3 °C, 200 psi, 200° F.
  solubility thermodynamic: 51.1 mg/mL (≈ 225 mM)
[1]; 93.3 °C, Atm., 200° F.
  solubility thermodynamic: 47.9 mg/mL (≈ 211 mM)
[2]
  Solubility in the base mixture: substantially insoluble
